Reference: patent publication US9833497B2, “Human originated EGF domain proteins and use of the same” (CHENGDU SOURCEBIO LIMITED-LIABILITY COMPANY, priority 2013, dated 2017)

Columns and labels:
Type in all cases: cell-based
Klebsiella pneumonia = test: MIC against Gram-negative bacteria: Klebsiella pneumonia; conditions: 5×10^5 CFU/mL
Outline: (§1)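 MIC = lowest concentration of recombinant protein showing no growth. Test proteins: purified human-derived EGF domain proteins, two-fold dilution series, three wells per concentration; inoculum 5×10^5 CFU/mL in LB; incubation 37° C with shaking at 175 rpm.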

E. coli DH5α = test: Antibacterial activity: MIC and growth curve against E. coli DH5α in 96-well plate; conditions: minimal inhibitory concentration against E. coli DH5α; 96-well plate, 5×10^5 CFU/mL, 37° C., judged after 8 h
Outline: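 Log-phase bacteria (OD600 ~0.5) resuspended in LB at 5×10^5 CFU/mL, exposed to recombinant protein at 50, 25, 12.5 μg/mL final in triplicate, 37 °C shaking at 175 rpm. OD600 read every 30 min; MIC is lowest concentration showing no growth.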

Aeromonas hydrophila = test: MIC against Gram-negative bacteria: Aeromonas hydrophila; conditions: 5×10^5 CFU/mL
Outline: as §1

Citrobacter diversus = test: MIC against Gram-negative bacteria: Citrobacter diversus; conditions: 5×10^5 CFU/mL
Outline: as §1

Proteus mirabilis = test: MIC against Gram-negative bacteria: Proteus mirabilis; conditions: 5×10^5 CFU/mL
Outline: as §1

Enterobacter cloacae = test: MIC against Gram-negative bacteria: Enterobacter cloacae; conditions: 5×10^5 CFU/mL
Outline: as §1

Serratia marcescens = test: MIC against Gram-negative bacteria: Serratia marcescens; conditions: 5×10^5 CFU/mL
Outline: as §1

Moraxella catarrhalis = test: MIC against Gram-negative bacteria: Moraxella catarrhalis; conditions: 5×10^5 CFU/mL
Outline: as §1

E. coli BL21 = test: MIC against Gram-negative bacteria: E. coli BL21; conditions: 5×10^5 CFU/mL
Outline: as §1

Pseudomonas aeruginosa = test: MIC against Gram-negative bacteria: Pseudomonas aeruginosa; conditions: 5×10^5 CFU/mL
Outline: as §1

Proteus vulgaris = test: MIC against Gram-negative bacteria: Proteus vulgaris; conditions: 5×10^5 CFU/mL
Outline: as §1

[1] = K. pneumonia, 10 h cultivation at 37° C.
[2] = A. hydrophila, 10 h cultivation at 37° C.
[3] = C. diversus, 10 h cultivation at 37° C.
[4] = P. mirabilis, 10 h cultivation at 37° C.
[5] = E. cloacae, 10 h cultivation at 37° C.
[6] = S. marcescens, 10 h cultivation at 37° C.
[7] = M. catarrhalis, 10 h cultivation at 37° C.
[8] = E. coli BL21, 10 h cultivation at 37° C.
[9] = P. aeruginosa, 10 h cultivation at 37° C.
[10] = P. vulgaris, 10 h cultivation at 37° C.
[11] = Klebsiella pneumonia, 96-well plate, 37° C., 10 h
[12] = Aeromonas hydrophila, 96-well plate, 37° C., 10 h
[13] = Citrobacter diversus, 96-well plate, 37° C., 10 h
[14] = Proteus mirabilis, 96-well plate, 37° C., 10 h
[15] = Enterobacter cloacae, 96-well plate, 37° C., 10 h
[16] = Serratia marcescens, 96-well plate, 37° C., 10 h
[17] = Moraxella catarrhalis, 96-well plate, 37° C., 10 h
[18] = E. coli BL21, 96-well plate, 37° C., 10 h
[19] = Pseudomonas aeruginosa, 96-well plate, 37° C., 10 h
[20] = Proteus vulgaris, 96-well plate, 37° C., 10 h

PRT169 (CIRYPGCLHGTCQQPWQCNCQEGWGGLFC; listed as Homo sapiens)
100 µg/mL: MIC (μg/mL) K. pneumonia (Klebsiella pneumonia; [1])
50 µg/mL: MIC (E. coli DH5α) | MIC (μg/mL) P. mirabilis (Proteus mirabilis; [4]) | MIC (μg/mL) E. cloacae (Enterobacter cloacae; [5]) | MIC (μg/mL) P. aeruginosa (Pseudomonas aeruginosa; [9])
12.5 µg/mL: MIC (μg/mL) C. diversus (Citrobacter diversus; [3]) | MIC (μg/mL) S. marcescens (Serratia marcescens; [6]) | MIC (μg/mL) E. coli BL21 (E. coli BL21; [8])
25 µg/mL: MIC (μg/mL) A. hydrophila (Aeromonas hydrophila; [2]) | MIC (μg/mL) M. catarrhalis (Moraxella catarrhalis; [7]) | MIC (μg/mL) P. vulgaris (Proteus vulgaris; [10])

PRT819 (YGHNCSQACACFNGASCDPVHGQCHCAPGWMGPSCL; listed as Homo sapiens)
50 µg/mL: MIC (μg/mL) M. catarrhalis (Moraxella catarrhalis; [7]) | MIC (μg/mL) P. vulgaris (Proteus vulgaris; [10])
25 µg/mL: MIC (μg/mL) C. diversus (Citrobacter diversus; [3]) | MIC (μg/mL) E. cloacae (Enterobacter cloacae; [5]) | MIC (μg/mL) S. marcescens (Serratia marcescens; [6]) | MIC (μg/mL) E. coli BL21 (E. coli BL21; [8])
12.5 µg/mL: MIC (μg/mL) K. pneumonia (Klebsiella pneumonia; [1]) | MIC (E. coli DH5α) | MIC (μg/mL) A. hydrophila (Aeromonas hydrophila; [2]) | MIC (μg/mL) P. mirabilis (Proteus mirabilis; [4]) | MIC (μg/mL) P. aeruginosa (Pseudomonas aeruginosa; [9])

PRT421 (DQDECLLLPGELCQHLCINTVGSYHCACFPGFSLQDDGRTCR; listed as Homo sapiens)
50 µg/mL: MIC (Klebsiella pneumonia; [1]) | MIC (Aeromonas hydrophila; [2]) | MIC (Moraxella catarrhalis; [7]) | MIC (E. coli BL21; [8])
25 µg/mL: MIC (Proteus mirabilis; [4]) | MIC (Serratia marcescens; [6])
12.5 µg/mL: MIC (E. coli DH5α) | MIC (Citrobacter diversus; [3]) | MIC (Enterobacter cloacae; [5]) | MIC (Pseudomonas aeruginosa; [9]) | MIC (Proteus vulgaris; [10])

PRT61 (KDECSKDNGGCQQDCVNTFGSYECQCRSGFVLHDNKHDCK; listed as Homo sapiens)
12.5 µg/mL: MIC (μg/mL) K. pneumonia (Klebsiella pneumonia; [11]) | MIC (E. coli DH5α) | MIC (μg/mL) A. hydrophila (Aeromonas hydrophila; [12]) | MIC (μg/mL) E. cloacae (Enterobacter cloacae; [15]) | MIC (μg/mL) P. aeruginosa (Pseudomonas aeruginosa; [19]) | MIC (μg/mL) P. vulgaris (Proteus vulgaris; [20])
50 µg/mL: MIC (μg/mL) E. coli BL21 (E. coli BL21; [18])
25 µg/mL: MIC (μg/mL) C. diversus (Citrobacter diversus; [13]) | MIC (μg/mL) P. mirabilis (Proteus mirabilis; [14]) | MIC (μg/mL) S. marcescens (Serratia marcescens; [16]) | MIC (μg/mL) M. catarrhalis (Moraxella catarrhalis; [17])

PRT46 (CQCNGHSTCINNNVCEQCKNLTTGKQCQDCMPGYYGDPTNGGQCTA; listed as Homo sapiens)
25 µg/mL: MIC (E. coli DH5α) | MIC (μg/mL) P. mirabilis (Proteus mirabilis; [14]) | MIC (μg/mL) E. cloacae (Enterobacter cloacae; [15])
12.5 µg/mL: MIC (μg/mL) K. pneumonia (Klebsiella pneumonia; [11]) | MIC (μg/mL) A. hydrophila (Aeromonas hydrophila; [12]) | MIC (μg/mL) C. diversus (Citrobacter diversus; [13]) | MIC (μg/mL) M. catarrhalis (Moraxella catarrhalis; [17]) | MIC (μg/mL) E. coli BL21 (E. coli BL21; [18]) | MIC (μg/mL) P. vulgaris (Proteus vulgaris; [20])
50 µg/mL: MIC (μg/mL) P. aeruginosa (Pseudomonas aeruginosa; [19])
100 µg/mL: MIC (μg/mL) S. marcescens (Serratia marcescens; [16])

PRT560 (GSCHPAGLAPVDPALPEAQVPCMCRAHVEGPSCDRCKPGFWGLSPSNPEGCTR; listed as Homo sapiens)
50 µg/mL: MIC against C. diversus (Citrobacter diversus; 96-well plate, 37° C., 10 h) | MIC against P. mirabilis (Proteus mirabilis; 96-well plate, 37° C., 10 h) | MIC against E. cloacae (Enterobacter cloacae; 96-well plate, 37° C., 10 h) | MIC against S. marcescens (Serratia marcescens; 96-well plate, 37° C., 10 h) | MIC against P. aeruginosa (Pseudomonas aeruginosa; 96-well plate, 37° C., 10 h) | MIC against P. vulgaris (Proteus vulgaris; 96-well plate, 37° C., 10 h)
25 µg/mL: MIC against K. pneumonia (Klebsiella pneumonia; 96-well plate, 37° C., 10 h) | MIC against A. hydrophila (Aeromonas hydrophila; 96-well plate, 37° C., 10 h) | MIC against M. catarrhalis (Moraxella catarrhalis; 96-well plate, 37° C., 10 h) | MIC against E. coli BL21 (E. coli BL21; 96-well plate, 37° C., 10 h)
12.5 µg/mL: MIC (E. coli DH5α)

PRT592 (CDCDFRGTEGPGCDKASGRCLCRPGLTGPRCDQCQRGYCNRYPVCVA; listed as Homo sapiens)
25 µg/mL: MIC against P. vulgaris (Proteus vulgaris; 96-well plate, 37° C., 10 h)
50 µg/mL: MIC (E. coli DH5α) | MIC against C. diversus (Citrobacter diversus; 96-well plate, 37° C., 10 h) | MIC against P. mirabilis (Proteus mirabilis; 96-well plate, 37° C., 10 h) | MIC against E. cloacae (Enterobacter cloacae; 96-well plate, 37° C., 10 h) | MIC against P. aeruginosa (Pseudomonas aeruginosa; 96-well plate, 37° C., 10 h)
12.5 µg/mL: MIC against K. pneumonia (Klebsiella pneumonia; 96-well plate, 37° C., 10 h) | MIC against A. hydrophila (Aeromonas hydrophila; 96-well plate, 37° C., 10 h) | MIC against S. marcescens (Serratia marcescens; 96-well plate, 37° C., 10 h) | MIC against E. coli BL21 (E. coli BL21; 96-well plate, 37° C., 10 h)
100 µg/mL: MIC against M. catarrhalis (Moraxella catarrhalis; 96-well plate, 37° C., 10 h)

PRT1497 (KPVCEPGCGAHGTCHEPNKCQCQEGWHGRHCN; listed as Homo sapiens)
25 µg/mL: MIC (μg/mL) C. diversus (Citrobacter diversus; [13]) | MIC (μg/mL) E. cloacae (Enterobacter cloacae; [15]) | MIC (μg/mL) E. coli BL21 (E. coli BL21; [18])
50 µg/mL: MIC (μg/mL) K. pneumonia (Klebsiella pneumonia; [11]) | MIC (E. coli DH5α) | MIC (μg/mL) M. catarrhalis (Moraxella catarrhalis; [17]) | MIC (μg/mL) P. vulgaris (Proteus vulgaris; [20])
12.5 µg/mL: MIC (μg/mL) A. hydrophila (Aeromonas hydrophila; [12]) | MIC (μg/mL) P. mirabilis (Proteus mirabilis; [14]) | MIC (μg/mL) S. marcescens (Serratia marcescens; [16]) | MIC (μg/mL) P. aeruginosa (Pseudomonas aeruginosa; [19])

PRT1455 (DWDECVDSAEHDCSPAAWCINLEGSYTCQCRTTRDATPSRAGRACE; listed as Homo sapiens)
12.5 µg/mL: MIC against C. diversus (Citrobacter diversus; Citrobacter diversus, 10 h cultivation at 37° C.) | MIC against P. mirabilis (Proteus mirabilis; Proteus mirabilis, 10 h cultivation at 37° C.) | MIC against E. cloacae (Enterobacter cloacae; Enterobacter cloacae, 10 h cultivation at 37° C.) | MIC against M. catarrhalis (Moraxella catarrhalis; Moraxella catarrhalis, 10 h cultivation at 37° C.) | MIC against E. coli BL21 (E. coli BL21; [8]) | MIC against P. vulgaris (Proteus vulgaris; Proteus vulgaris, 10 h cultivation at 37° C.)
25 µg/mL: MIC against K. pneumonia (Klebsiella pneumonia; Klebsiella pneumonia, 10 h cultivation at 37° C.) | MIC (E. coli DH5α) | MIC against A. hydrophila (Aeromonas hydrophila; Aeromonas hydrophila, 10 h cultivation at 37° C.) | MIC against S. marcescens (Serratia marcescens; Serratia marcescens, 10 h cultivation at 37° C.) | MIC against P. aeruginosa (Pseudomonas aeruginosa; Pseudomonas aeruginosa, 10 h cultivation at 37° C.)
